The values that follow come from patent US8697081B2, “Method of modulating neovascularization” (The Regents of the University of Michigan, priority 2008, dated 2014).

Experiment [1] has as its system Human umbilical vein endothelial cells. Description: Cytoskeletal organization (F-actin, β-tubulin, vimentin) and isometric tension/contractile force. The format is cell-based. The settings on record: 3-D culture, VEGF/HGF-stimulated, blebbistatin or nocodazole.
Procedure: This process can be recapitulated in vitro by embedding serum-supplemented human endothelial cells within a 3-D fibrin gel in the presence of the pro-angiogenic factors, VEGF and HGF. Human umbilical vein endothelial cells were isolated from umbilical cords by perfusion of the umbilical vein with type 3 collagenase (Worthington, Lakewood, N.J.) and cultured in Medium-199 (Invitrogen, Carlsbad, Calif.) with 20% human serum and 50 μg/ml endothelial cell growth supplement (ECGS; BD Biosciences, Franklin Lakes, N.J.). For 3-D culture, endothelial cells were suspended in a solution of thrombin and aprotinin (Sigma, St. Louis, Mo.) and mixed 1:1 with a solution of 6 mg/ml fibrinogen (Calbiochem, Gibbstown, N.J.). Vasculogenesis was triggered by treatment with 100 ng/ml VEGF, 50 ng/ml HGF (Genentech, San Francisco, Calif.).
VEGF/HGF-stimulated endothelial cells were treated with either (a) blebbistatin to inhibit myosin ATPase function, or (b) nocodazole to prevent microtubule assembly under 3-D culture conditions (Salpingidou et al., 2007. J. Cell Biol., 178: 897-904; Zhou et al., supra).
The next experiment has as its system human endothelial cells. Description: Tubulogenesis (patent tubules) in 3-D fibrin gel. The format is cell-based. Conditions: 50 μM blebbistatin. How it is done: Endothelial cells were isolated from human umbilical cord veins by collagenase digestion and cultured in Medium 199 (Gibco) containing 20% human serum, 50 μg/ml endothelial cell growth supplement (BD Biosciences), 100 U/ml penicillin, and 100 μg/ml streptomycin (Hiraoka et al. 1998. Cell, 95(3): 365-377). […]
(Chernousov et al. 1991. J. Biol. Chem., 266(17): 10851-10858; Tomasini-Johansson et al. 2001. J. Biol. Chem., 276(26): 23430-23439; Mao and Schwarzbauer. 2005. Matrix Biol., 24(6): 389-399; and Tomasini-Johansson et al. 2006. Matrix Biol., 25(5): 282-293). […] Cell number in 3-D cultures was determined by hemacytometry after dissolving gels with 2 mg/ml bacterial collagenase (Worthington) while the number of patent tubules was determined in randomly selected cross-sections. Fn matrix assembly and cell morphology were monitored by confocal laser microscopy. To examine cell migration, endothelial cells were embedded in a 100 μl fibrin gel for 2 hours, then placed within a 500 μl gel for 8 days in the presence of Del29, FUD, control IgG, or L8, after which migration from the inner gel was assessed.

Each structure is given as a SMILES string.

Consider `Cc1ccc2c(c1)C(=O)C1(O)CCN(c3ccccc3)C1=N2` (centres unmarked) [blebbistatin], for which the “contractile force exerted on the 3-D ECM” value in experiment [1] is recorded as “impairing”. The endothelial cell tubulogenesis result in the experiment on human endothelial cells is listed as “blocked completely”.
